test system: Aβ 42 Production; test: Quantification of Aβ peptide in culture of neurons from rat fetus brain (Aβ ELISA); format: cell-based; details: Neuron, 72 h; rat primary neuronal culture (embryonic day 18 Wistar rat cerebral cortex), cultured three days after addition of the compound, Aβx-42 ELISA of the medium; read-out: Activity for reducing Aβ 42 Production IC50
Method: Quantification of Aβ Peptide in Culture of Neurons from Rat Fetus Brain
(1) Rat Primary Neuronal Culture
Primary neuronal cultures were prepared from the cerebral cortex of embryonic day 18 Wistar rats (Charles River Japan, Yokohama, Japan). Specifically, the embryos were aseptically removed from pregnant rats under ether anesthesia. The brain was isolated from the embryo and immersed in an ice-cold L-15 medium (Invitrogen Corp. Cat #11415-064, Carlsbad, Calif., USA, or SIGMA L1518, for example). The cerebral cortex was collected from the isolated brain under a stereoscopic microscope. The cerebral cortex fragments collected were enzymatically treated in an enzyme solution containing 0.25% trypsin (Invitrogen Corp. Cat #15050-065, Carlsbad, Calif., USA) and 0.01% DNase (Sigma D5025, St. Louis, Mo., USA) at 37° C. for 30 minutes to disperse the cells. Here, the enzymatic reaction was stopped by adding inactivated horse serum to the solution. The enzymatically treated solution was centrifuged at 1,500 rpm for five minutes to remove the supernatant. 5 to 10 mL of a medium was added to the resulting cell mass. Neurobasal medium (Invitrogen Corp. Cat #21103-049, Carlsbad, Calif., USA) supplemented with 2% B27 supplement (Invitrogen Corp. Cat #17504-044, Carlsbad, Calif., USA), 25 μM 2-mercaptoethanol (2-ME, WAKO Cat #139-06861, Osaka, Japan), 0.5 mM L-glutamine (Invitrogen Corp. Cat #25030-081, Carlsbad, Calif., USA), and Antibiotics-Antimycotics (Invitrogen Corp. Cat #15240-062, Carlsbad, Calif., USA) was used as the medium (Neurobasal/B27/2-ME). However, the above Neurobasal medium not supplemented with 2-ME (Neurobasal/B27) was used for the assay. The cells were redispersed by mild pipetting of the cell mass to which the medium was added. The cell dispersion was filtered through a 40-μm nylon mesh (Cell Strainer, Cat #35-2340, Becton Dickinson Labware, Franklin Lakes, N.J., USA) to remove the remaining cell mass, and thus a neuronal cell suspension was obtained. The neuronal cell suspension was diluted with the medium and then plated in a volume of 100 μl/well at an initial cell density of 5×10^5 cells/cm^2 in a 96-well polystyrene culture plate pre-coated with poly-L or D-lysine (Falcon Cat #35-3075, Becton Dickinson Labware, Franklin Lakes, N.J., USA coated with poly-L-lysine using the method shown below, or BIOCOAT™ cell environments Poly-D-lysine cell ware 96-well plate, Cat #35-6461, Becton Dickinson Labware, Franklin Lakes, N.J., USA). Poly-L-lysine coating was carried out as follows. 100 μg/ml of a poly-L-lysine (SIGMA P2636, St. Louis, Mo., USA) solution was aseptically prepared with a 0.15 M borate buffer (pH 8.5). 100 μl/well of the solution was added to the 96-well polystyrene culture plate and incubated at room temperature for one or more hours or at 4° C. overnight or longer. The coated 96-well polystyrene culture plate was washed with sterile water four or more times, and then dried or rinsed with, for example, sterile PBS or medium, and used for cell plating. The plated cells were cultured in the culture plate at 37° C. in 5% CO2-95% air for one day. Then, the total amount of the medium was replaced with a fresh Neurobasal/B27/2-ME medium, and then the cells were cultured for further three days.
The drug was added to the culture plate on Day 4 of culture as follows. The total amount of the medium was removed from the wells, and 180 μl/well of Neurobasal medium not containing 2-ME and containing 2% B-27 (Neurobasal/B27) was added thereto. A solution of the test compound in dimethyl sulfoxide (hereinafter abbreviated as DMSO) was diluted with Neurobasal/B27 at 10-fold of the final concentration. 20 μl/well of the dilution was added to and sufficiently mixed with the medium. The final DMSO concentration was 1% or less. Only DMSO was added to the control group.
The cells were cultured for three days after addition of the compound, and the total amount of the medium was collected. […]

| Compound | IC50 |
| --- | --- |
| COc1cc(/C=C2\CC[C@H]3CCC[C@@H](c4cccc(F)c4)N3C2=O)ccc1-n1cnc(C)c1 [Example 41, (E)-(6S,9aR)-6-(3-fluorophenyl)-3-[3-methoxy-4-(4-methyl-1H-imidazol-1-yl)benzylidene]octahydroquinolizin-4-one] | 47 nM |
| COc1cc(/C=C2\CC[C@H]3CN(C)C[C@@H](c4cc(F)c(F)c(F)c4)N3C2=O)ccc1-n1cnc(C)c1 [Example 110, (4R,9aS)-7-{1-[3-methoxy-4-(4-methyl-1H-imidazol-1-yl)phenyl]-(E)-methylidene}-2-methyl-4-(3,4,5-trifluorophenyl)octahydropyrido[1,2-a]pyrazin-6-one] | 29 nM |
| COc1cc(/C=C2\CC[C@H]3COC[C@@H](c4cc(F)c(F)c(F)c4)N3C2=O)ccc1-n1cnc(C)c1 [Example 83, (E)-(4R,9aS)-7-[3-methoxy-4-(4-methyl-1H-imidazol-1-yl)benzylidene]-4-(3,4,5-trifluorophenyl)hexahydropyrido[2,1-c][1,4]oxazin-6-one] | 37 nM |
| COc1cc(/C=C2\CC[C@H]3CC[C@@H](c4ccc(F)c(F)c4F)N3C2=O)ccc1-n1cnc(C)c1 [Example 58, (E)-(3S,8aS)-3-(2,3,4-trifluorophenyl)-6-[3-methoxy-4-(4-methyl-1H-imidazol-1-yl)benzylidene]hexahydroindolizin-5-one] | 73 nM |
| COc1cc(/C=C2\CC[C@H]3CC[C@@H](c4ccc(Cl)cc4)N3C2=O)ccc1-n1cnc(C)c1 [Example 56, (E)-(3S,8aS)-3-(4-chlorophenyl)-6-[3-methoxy-4-(4-methyl-1H-imidazol-1-yl)benzylidene]hexahydroindolizin-5-one] | 55 nM |
| COc1cc(/C=C2\CC[C@H]3COC[C@@H](c4ccc(Cl)cc4)N3C2=O)ccc1-n1cnc(C)c1 [Example 96, (4R,9aS)-4-(4-chlorophenyl)-7-{1-[3-methoxy-4-(4-methyl-1H-imidazol-1-yl)phenyl]-(E)-methylidene}hexahydropyrido[2,1-c][1,4]oxazin-6-one] | 65 nM |
| COc1cc(/C=C2\CC[C@@H]3CCC[C@H](c4ccccc4F)N3C2=O)ccc1-n1cnc(C)c1 [Example 44, (E)-(6R,9aS)-6-(2-fluorophenyl)-3-[3-methoxy-4-(4-methyl-1H-imidazol-1-yl)benzylidene]octahydroquinolizin-4-one] | 94 nM |
| COc1cc(/C=C2\CC[C@@H]3C[C@@H](O)C[C@@H](c4cc(F)c(F)c(F)c4)N3C2=O)ccc1-n1cnc(C)c1 [Example 17, (E)-(6S,8R,9aR)-6-(3,4,5-trifluorophenyl)-8-hydroxy-3-[3-methoxy-4-(4-methyl-1H-imidazol-1-yl)benzylidene]octahydroquinolizin-4-one] | 68 nM |
| COc1cc(/C=C2\CC[C@H]3CC[C@@H](c4cc(F)c(F)cc4F)N3C2=O)ccc1-n1cnc(C)c1 [Example 57, (E)-(3S,8aS)-3-(2,4,5-trifluorophenyl)-6-[3-methoxy-4-(4-methyl-1H-imidazol-1-yl)benzylidene]hexahydroindolizin-5-one] | 62 nM |
| COc1cc(/C=C2\CC[C@@H]3C[C@@](C)(O)C[C@@H](c4ccc(F)cc4)N3C2=O)ccc1-n1cnc(C)c1 [Example 45, (E)-(6S,8R,9aR)-6-(4-fluorophenyl)-8-hydroxy-3-[3-methoxy-4-(4-methyl-1H-imidazol-1-yl)benzylidene]-8-methyloctahydroquinolizin-4-one] | 160 nM |
| COc1cc(/C=C2\CC[C@H]3CCC[C@@H](c4ccc(Cl)cc4)N3C2=O)ccc1-n1cnc(C)c1 [Example 92, (6S,9aR)-6-(4-chlorophenyl)-3-{1-[3-methoxy-4-(4-methyl-1H-imidazol-1-yl)phenyl]-(E)-methylidene}octahydroquinolizin-4-one] | 40 nM |
| COc1cc(/C=C2\C[C@H]3CC[C@@H](c4ccc(F)c(F)c4)N3C2=O)ccc1-n1cnc(C)c1 [Example 54, (E)-(5S,7aR)-5-(3,4-difluorophenyl)-2-[3-methoxy-4-(4-methyl-1H-imidazol-1-yl)benzylidene]hexahydropyrrolidin-3-one] | 254 nM |
| COc1cc(/C=C2\CC[C@@H]3CCC[C@@H](c4cc(F)c(F)c(F)c4)N3C2=O)ccc1-n1cnc(C)c1 [Example 13, (E)-(6S,9aS)-6-(3,4,5-trifluorophenyl)-3-[3-methoxy-4-(4-methyl-1H-imidazol-1-yl)benzylidene]octahydroquinolizin-4-one] | 91 nM |
| COc1cc(/C=C2\CC[C@H]3CCC[C@@H](c4cc(F)c(F)c(F)c4)N3C2=O)ccc1-n1cnc(C)c1 [Example 91, (6S,9aR)-6-(3,4,5-trifluorophenyl)-3-{1-[3-methoxy-4-(4-methyl-1H-imidazol-1-yl)phenyl]-(E)-methylidene}octahydroquinolizin-4-one] | 33 nM |
| COc1cc(/C=C2\CC[C@H]3CC[C@@H](c4c(F)cc(F)cc4F)N3C2=O)ccc1-n1cnc(C)c1 [Example 89, (3S,8aS)-6-{1-[3-methoxy-4-(4-methyl-1H-imidazol-1-yl)phenyl]-(E)-methylidene}-3-(2,4,6-trifluorophenyl)hexahydroindolizin-5-one] | 88 nM |
| COc1cc(/C=C2\CC[C@H]3CC[C@@H](c4cc(F)cc(F)c4)N3C2=O)ccc1-n1cnc(C)c1 [Example 64, (E)-(3S,8aS)-3-(3,5-difluorophenyl)-6-[3-methoxy-4-(4-methyl-1H-imidazol-1-yl)benzylidene]hexahydroindolizin-5-one] | 67 nM |
| COc1cc(/C=C2\CC[C@@H]3C[C@H](O)C[C@@H](c4cc(F)c(F)c(F)c4)N3C2=O)ccc1-n1cnc(C)c1 [Example 15, (E)-(6S,8S,9aR)-6-(3,4,5-trifluorophenyl)-8-hydroxy-3-[3-methoxy-4-(4-methyl-1H-imidazol-1-yl)benzylidene]octahydroquinolizin-4-one] | 80 nM |
| COc1ccc([C@@H]2CCC[C@@H]3CC/C(=C\c4ccc(-n5cnc(C)c5)c(OC)c4)C(=O)N32)cc1 [Example 30, (E)-(6S,9aR)-3-[3-methoxy-4-(4-methyl-1H-imidazol-1-yl)benzylidene]-6-(4-methoxyphenyl)octahydroquinolizin-4-one] | 109 nM |
| COc1cc(/C=C2\CC[C@H]3CCC[C@@H](c4ccc(F)c(F)c4)N3C2=O)ccc1-n1cnc(C)c1 [Example 90, (6S,9aR)-6-(3,4-difluorophenyl)-3-{1-[3-methoxy-4-(4-methyl-1H-imidazol-1-yl)phenyl]-(E)-methylidene}octahydroquinolizin-4-one] | 39 nM |
| COc1cc(/C=C2\CC[C@@H]3CCC[C@@H](c4ccc(F)cc4)N3C2=O)ccc1-n1cnc(C)c1 [Example 19, (E)-(6S,9aS)-6-(4-fluorophenyl)-3-[3-methoxy-4-(4-methyl-1H-imidazol-1-yl)benzylidene]octahydroquinolizin-4-one] | 129 nM |
| COc1cc(/C=C2\CC[C@H]3CC[C@@H](c4ccc(F)c(F)c4)N3C2=O)ccc1-n1cnc(C)c1 [Example 6, (E)-(3S)-(3,4-difluorophenyl)-6-[3-methoxy-4-(4-methyl-1H-imidazol-1-yl)benzylidene]-(9S)-hexahydroindolizin-5-one] | 120 nM |
